Measurements published in patent US4751295A, “Cephalosporin derivatives” (Bristol-Myers Company, priority 1986, dated 1988).
Values after ≈ are worked out from the molar mass of the structure shown.

How the values were obtained:
[1] = tested on: Penicillinresistant S. aureus (5 strains); assay: MIC, two-fold serial agar dilution, group (G+)-Ib; type: cell-based; details: Staphylococcus aureus, Mueller-Hinton agar; 5 strains; read-out: Geometric Mean of MIC, (G+)-Ib
Experimental: (§1) In the primary evaluation of the compounds of this invention, the Minimum Inhibitory Concentrations (MIC's) of the compounds were determined by the two-fold serial agar dilution method in Mueller-Hinton agar against 32 strains of test organisms in six groups.
(G+)Ib: Penicillinresistant S. aureus (5 strains)

[2] = tested on: Ps. aeruginosa (7 strains); assay: MIC, two-fold serial agar dilution, group (G-)-III; type: cell-based; details: Pseudomonas aeruginosa, Mueller-Hinton agar, read-out: Geometric Mean of MIC, (G-)-III
Experimental: as §1
(G-)III: Ps. aeruginosa (7 strains)

[3] = tested on: Cephalothinsensitive E. coli (2 strains), Kl. pneumoniae (1 strain) and Pr. mirabilis (2 strains); assay: MIC, two-fold serial agar dilution, group (G-)-Ia; type: cell-based; details: Mueller-Hinton agar; 5 strains; read-out: Geometric Mean of MIC, (G-)-Ia
Experimental: as §1
(G+)Ia: Cephalothinsensitive E. coli (2 strains), Kl. pneumoniae (1
strain) and Pr. mirabilis (2 strains)

[4] = tested on: Penicillinsensitive S. aureus (5 strains); assay: MIC, two-fold serial agar dilution, group (G+)-Ia; type: cell-based; details: Staphylococcus aureus, Mueller-Hinton agar; 5 strains; read-out: Geometric Mean of MIC, (G+)-Ia
Experimental: as §1
(G+)Ia: Penicillinsensitive S. aureus (5 strains)

[5] = blood levels upon intramuscular administration to mice; type: in vivo; details: mouse, im, 20 mg/kg
Experimental: (§2) Table 2, below, gives the Protective Dose50 (PD50) in mice for a number of the compounds of Formula I against selected microorganisms. Table 3 gives blood levels of various compounds of Formula I upon intramuscular administration of the test compounds to mice at a dosage of 20 mg/kg.

[6] = tested on: M. morganii (1 strain), Ent. cloacae (2 strains) and Ser. marcescens (2 strains); assay: MIC, two-fold serial agar dilution, group (G-)-II; type: cell-based; details: Mueller-Hinton agar; 5 strains; read-out: Geometric Mean of MIC, (G-)-II
Experimental: as §1
(G-)II: M. morganii (1 strain), Ent. cloacae (2 strains) and Ser.

[7] = tested on: Cephalothinresistant E. coli (3 strains) and Kl. pneumoniae (2 strains); assay: MIC, two-fold serial agar dilution, group (G-)-Ib; type: cell-based; details: Escherichia coli, read-out: Geometric Mean of MIC, (G-)-Ib, Mueller-Hinton agar; 5 strains
Experimental: as §1
(G-)Ib: Cephalothinresistant E. coli (3 strains) and Kl. pneumoniae (2

[8] = tested on: S. aureus Smith; assay: Protective Dose50 in mice, S. aureus Smith; type: in vivo; details: Staphylococcus aureus, read-out: PD50, S. aureus Smith
Experimental: as §2

**Q.** What does the source list for CON=C(C(=O)NC1C(=O)N2C(C(=O)[O-])=C(/C=C/C[n+]3cccc(CO)c3)CSC12)c1nsc(N)n1 (stereo not shown) [Compound I-1K, 7-[2-(5-Amino-1,2,4-thiadiazol-3-yl)-2-methoxyiminoacetamido]-3-[3-(3-hydroxymethylpyridinio)-1-propenyl]-3-cephem-4-carboxylate]?
**A.** MIC [1]: 0.8 µg/mL (≈ 1.5 µM); MIC [2]: 3.5 µg/mL (≈ 6.58 µM); MIC [3]: 0.029 µg/mL (≈ 0.0546 µM); MIC [4]: 0.35 µg/mL (≈ 0.658 µM); AUC [5]: 14000 ng·h/mL; Cmax [5]: 24000 ng/mL; half-life [5]: 14 min; MIC [6]: 0.2 µg/mL (≈ 0.376 µM); MIC [7]: 0.044 µg/mL (≈ 0.0828 µM); ED50 [8]: 0.53 mg/kg

**Q.** With CNC(=O)c1cc[n+](C/C=C/C2=C(C(=O)[O-])N3C(=O)C(NC(=O)/C(=N\OC)c4nsc(N)n4)C3SC2)cc1 (stereo not shown) [Compound I-1M, 7-[2-(5-Amino-1,2,4-thiadiazol-3-yl)-2-(Z)-methoxyiminoacetamido]-3-[3-(4-N-methylcarbamoylpyridinio)-1-propenyl]-3-cephem-4-carboxylate] as the compound, how does the MIC [1] read?
**A.** 0.7 µg/mL (≈ 1.25 µM)

**Q.** What about the MIC [2] of the same compound?
**A.** 2.3 µg/mL (≈ 4.12 µM)

**Q.** What about the MIC [3] of the same compound?
**A.** 0.029 µg/mL (≈ 0.0519 µM)

**Q.** What about the MIC [4] of the same compound?
**A.** 0.35 µg/mL (≈ 0.627 µM)

**Q.** And the AUC [5]?
**A.** 14000 ng·h/mL

**Q.** What about the Cmax [5] of the same compound?
**A.** 20000 ng/mL

**Q.** And the half-life [5]?
**A.** 23 min

**Q.** What about the MIC [6] of the same compound?
**A.** 0.17 µg/mL (≈ 0.304 µM)

**Q.** And the MIC [7]?
**A.** 0.1 µg/mL (≈ 0.179 µM)

**Q.** And the ED50 [8]?
**A.** 0.96 mg/kg

**Q.** For CON=C(C(=O)NC1C(=O)N2C(C(=O)[O-])=C(C=CC[n+]3ccc(C(=O)O)cc3)CSC12)c1nsc(N)n1 (stereo not shown) [Compound I-1N, 7-[2-(5-Amino-1,2,4-thiadiazol-3-yl)-2-methoxyiminoacetamido]-3-[3-(4-carboxypyridinio)-1-propenyl]-3-cephem-4-carboxylate], which MIC [1] is on record?
**A.** 1.6 µg/mL (≈ 2.93 µM)

**Q.** What about the MIC [2] of the same compound?
**A.** 5.7 µg/mL (≈ 10.4 µM)

**Q.** And the MIC [3]?
**A.** 0.013 µg/mL (≈ 0.0238 µM)

**Q.** And the MIC [4]?
**A.** 1.2 µg/mL (≈ 2.2 µM)

**Q.** And the AUC [5]?
**A.** 18000 ng·h/mL

**Q.** And the Cmax [5]?
**A.** 24000 ng/mL

**Q.** And the half-life [5]?
**A.** 19 min

**Q.** And the MIC [6]?
**A.** 0.3 µg/mL (≈ 0.55 µM)

**Q.** And the MIC [7]?
**A.** 0.066 µg/mL (≈ 0.121 µM)

**Q.** And the ED50 [8]?
**A.** 2 mg/kg

**Q.** For CCO/N=C(\C(=O)NC1C(=O)N2C(C(=O)[O-])=C(C=CC[n+]3ccc(C(=O)O)cc3)CSC12)c1nsc(N)n1 (stereo not shown) [Compound I-2N, 7-[2-(5-Amino-1,2,4-thiadiazol-3-yl)-2-(Z)-ethoxyiminoacetamido]-3-[3-(4-carboxypyridinio)-1-propenyl]-3-cephem-4-carboxylate], which AUC [5] is on record?
**A.** 12000 ng·h/mL

**Q.** What about the Cmax [5] of the same compound?
**A.** 22000 ng/mL

**Q.** And the half-life [5]?
**A.** 20 min

**Q.** And the ED50 [8]?
**A.** 5 mg/kg

**Q.** Which MIC [1] does the source give for C#CCON=C(C(=O)NC1C(=O)N2C(C(=O)[O-])=C(/C=C/C[n+]3ccc(C(N)=O)cc3)CSC12)c1nsc(N)n1 (stereo not shown) [Compound I-4H, 7-[2-(5-Amino-1,2,4-thiadiazol-3-yl)-2-propargyloxyiminoacetamido]-3-[3-(4-carbamoylpyridinio)-1-propenyl]-3-cephem-4-carboxylate] here?
**A.** 0.46 µg/mL (≈ 0.809 µM)

**Q.** What about the MIC [2] of the same compound?
**A.** 2.6 µg/mL (≈ 4.57 µM)

**Q.** What about the MIC [3] of the same compound?
**A.** 0.066 µg/mL (≈ 0.116 µM)

**Q.** And the MIC [4]?
**A.** 0.26 µg/mL (≈ 0.457 µM)

**Q.** And the AUC [5]?
**A.** 16000 ng·h/mL

**Q.** What about the Cmax [5] of the same compound?
**A.** 27000 ng/mL

**Q.** And the half-life [5]?
**A.** 22 min

**Q.** What about the MIC [6] of the same compound?
**A.** 0.6 µg/mL (≈ 1.06 µM)

**Q.** And the MIC [7]?
**A.** 0.11 µg/mL (≈ 0.193 µM)

**Q.** What does the source list for NC(=O)c1cc[n+](C/C=C/C2=C(C(=O)[O-])N3C(=O)C(NC(=O)C(=NOC4CCCC4)c4nsc(N)n4)C3SC2)cc1 (stereo not shown) [Compound I-5H, 7-[2-(5-Amino-1,2,4-thiadiazol-3-yl)-2-cyclopentyloxyiminoacetamido]-3-[3-(4-carbamoylpyridinio)-1-propenyl]-3-cephem-4-carboxylate]?
**A.** MIC [1]: 0.4 µg/mL (≈ 0.668 µM); MIC [2]: 4.2 µg/mL (≈ 7.02 µM); MIC [3]: 0.2 µg/mL (≈ 0.334 µM); MIC [4]: 0.13 µg/mL (≈ 0.217 µM); AUC [5]: 18000 ng·h/mL; Cmax [5]: 22000 ng/mL; half-life [5]: 32 min; MIC [6]: 2.1 µg/mL (≈ 3.51 µM); MIC [7]: 0.46 µg/mL (≈ 0.768 µM)
